Consider 67 molecules from patent US9822131B2, “Certain chemical entities, compositions and methods” (Intellikine LLC, priority 2008, dated 2017).

Each structure is given as a SMILES string. Some results are limits rather than exact numbers.

The subject of the first assay is Balb/c splenic B cells. Description: B cell activation and proliferation assay (Alamar Blue). In kind it is cell-based. To be noted: Mus musculus, read-out: B cell proliferation EC50. (Alamar Blue is a resazurin reagent that responds to reducing activity.)
Method: The assay is performed in a 96 well microtiter plate using Alamar Blue reduction. Balb/c splenic B cells are purified over a Ficoll-Paque™ PLUS gradient followed by magnetic cell separation using a MACS B cell Isolation Kit (Miletenyi). Cells are plated in 90 ul at 50,000 cells/well in B Cell Media (RPMI+10% FBS+Penn/Strep+50 uM bME+5 mM HEPES). A compound disclosed herein is diluted in B Cell Media and added in a 10 ul volume. Plates are incubated for 30 min at 37 C and 5% CO2 (0.2% DMSO final concentration). A 50 ul B cell stimulation cocktail is then added containing either 10 ug/ml LPS or 5 ug/ml F(ab′)2 Donkey anti-mouse IgM plus 2 ng/ml recombinant mouse IL4 in B Cell Media. […] A volume of 15 uL of Alamar Blue reagent is added to each well and plates are incubated for 5 hours at 37 C and 5% CO2. Alamar Blue fluoresce is read at 560Ex/590Em, and IC50 or EC50 values are calculated using GraphPad Prism 5.
For the molecule `Nc1ncnc2c1c(-c1cc(O)cc(F)c1)nn2Cc1cc2cccc(F)c2c(=O)n1-c1ccccc1F` [Compound 144], the EC50 was below 100 nM. In the case of `Cc1cccc2cc(Cn3nc(-c4cc(O)cc(F)c4)c4c(N)ncnc43)n(-c3ccccc3)c(=O)c12` [Compound 147], the EC50 was below 100 nM. On the same count and under the same terms, the same measure for `Cc1ccccc1-n1c(Cn2nc(C#N)c3c(N)ncnc32)cc2cccc(C)c2c1=O` [Compound 170]: below 100 nM; for `Cc1cccc2cc(Cn3nc(I)c4c(N)ncnc43)n(C3CCCC3)c(=O)c12` [Compound 57]: below 10000 nM. As to `Cc1ccccc1-n1c(Cn2nc(-c3cccc(O)c3)c3c(N)ncnc32)cc2ccccc2c1=O` [Compound 51], the EC50 is below 1000 nM. Still for that read-out and setting: then `Cc1cccc2cc(Cn3nc(C#C[C@@H](C)O)c4c(N)ncnc43)n(-c3ccccc3O)c(=O)c12` [Compound 91], with below 1000 nM. On to `Cc1cccc2cc(Cn3nc(-c4cccc(O)c4)c4c(N)ncnc43)n(-c3ccccc3)c(=O)c12` [Compound 146], for which the EC50 is below 100 nM. Still for that read-out and setting: then `Cc1ccccc1-n1c(Cn2nc(/C=C3/SC(=O)NC3=O)c3c(N)ncnc32)cc2cccc(C)c2c1=O` [Compound 173], with below 100 nM; and `Cc1cccc2cc(Cn3nc(Br)c4c(N)ncnc43)n(-c3ccccc3F)c(=O)c12` [Compound 35], with below 1000 nM. Same read-out and setting: the same measure for `C=Cc1nn(Cc2cc3cccc(C)c3c(=O)n2-c2ccccc2C)c2ncnc(N)c12` [Compound 180]: below 100 nM; for `Cc1ccccc1-n1c(Cn2nc(-c3ccc4nc(N)ncc4c3)c3c(N)ncnc32)cc2cccc(C)c2c1=O` [Compound 150]: below 100 nM; for `Cc1cccc2cc(Cn3nc(I)c4c(N)ncnc43)n(-c3ccccc3O)c(=O)c12` [Compound 79]: below 1000 nM. In the case of `Cc1ccccc1-n1c(Cn2nc(-c3cccc(F)c3)c3c(N)ncnc32)cc2cccc(C)c2c1=O` [Compound 41], the EC50 was below 1000 nM. For the molecule `Cc1cccc2cc(Cn3nc(-c4cc(O)cc(F)c4)c4c(N)ncnc43)n(C3CCOCC3)c(=O)c12` [Compound 128], the EC50 is below 100 nM. For the molecule `Nc1ncnc2c1c(-c1cccc(O)c1)nn2Cc1cc2cccc(Cl)c2c(=O)n1C1CC1` [Compound 141], the EC50 is below 100 nM. Consider `Cc1cccc2cc(Cn3nc(-c4cccc(O)c4)c4c(N)ncnc43)n(C)c(=O)c12` [Compound 124], for which the EC50 was below 1000 nM.

For `Cc1cccc2cc(Cn3cnc4c(N)ncnc43)n(-c3ccccc3F)c(=O)c12` [Compound 1], the EC50 is below 10000 nM. With `Cc1cccc2cc(Cn3nc(-c4cccc(F)c4)c4c(N)ncnc43)n(-c3ccccc3F)c(=O)c12` [Compound 40], the EC50 was below 10000 nM. As for `Cc1ccccc1-n1c(Cn2nc(C#C[C@@H](C)O)c3c(N)ncnc32)cc2ccccc2c1=O` [Compound 32], the EC50 was below 1000 nM.

Consider `Cc1ccccc1-n1c(Cn2nc(-c3ccc4ncnc(N)c4c3)c3c(N)ncnc32)cc2cccc(C)c2c1=O` [Compound 152], for which the EC50 was below 1000 nM. For the molecule `Cc1ccccc1-n1c(Cn2nc(-c3cc(O)cc(F)c3)c3c(N)nccc32)cc2cccc(C)c2c1=O` [Compound 113], the EC50 is below 100 nM. The same measure, in the same setting: then `Cc1cccc2cc(Cn3nc(-c4ccc(O)cc4)c4c(N)ncnc43)n(-c3ccccc3F)c(=O)c12` [Compound 46], with below 1000 nM; and `Cc1cccc2cc(Cn3nc(C#C[C@@H](C)O)c4c(N)ncnc43)n(C(C)C)c(=O)c12` [Compound 61], with below 1000 nM; and `Cc1ccccc1-n1c(Cn2nc(-c3ccc(F)c(O)c3)c3c(N)ncnc32)cc2ccccc2c1=O` [Compound 54], with below 100 nM. Turning to `Cc1cccc2cc(Cn3nc(-c4cc(O)cc(F)c4)c4c(N)ncnc43)n(C)c(=O)c12` [Compound 125], the EC50 was below 100 nM.

`COc1ccccc1-n1c(Cn2nc(-c3cc(O)cc(F)c3)c3c(N)ncnc32)cc2cccc(C)c2c1=O` [Compound 84]: the EC50 was below 100 nM. Still for that read-out and setting: the same measure for `Cc1ccccc1-n1c(Cn2nc(-c3ccc(O)c(F)c3)c3c(N)ncnc32)cc2cccc(C)c2c1=O` [Compound 30]: below 1000 nM; for `CNC(=O)Nc1nc2ccc(-c3nn(Cc4cc5cccc(C)c5c(=O)n4-c4ccccc4C)c4ncnc(N)c34)cc2s1` [Compound 148]: below 100 nM. For the molecule `Cc1cccc2cc(Cn3nc(-c4cc(O)cc(F)c4)c4c(N)ncnc43)n(-c3ccccc3OCCN3CCOCC3)c(=O)c12` [Compound 108], the EC50 was below 100 nM. Regarding `Cc1ccccc1-n1c(Cn2nc(-c3ccc(O)cc3)c3c(N)ncnc32)cc2cccc(C)c2c1=O` [Compound 36], the EC50 is below 1000 nM. The same measure, in the same setting: the same measure for `Cc1cccc2cc(Cn3nc(I)c4c(N)ncnc43)n(-c3ccccc3OCCN3CCOCC3)c(=O)c12` [Compound 103]: below 1000 nM. Turning to `Cc1cccc2cc(Cn3nc(I)c4c(N)ncnc43)n(-c3ccccc3C(C)C)c(=O)c12` [Compound 75], the EC50 was below 100 nM.

For the molecule `Cc1cccnc1-n1c(Cn2nc(Br)c3c(N)ncnc32)cc2cccc(C)c2c1=O` [Compound 17], the EC50 was below 100 nM. With `COc1ccccc1-n1c(Cn2nc(C#C[C@@H](C)O)c3c(N)ncnc32)cc2cccc(C)c2c1=O` [Compound 80], the EC50 was below 1000 nM. The same measure, in the same setting: the same measure for `Cc1cccc2cc(Cn3nc(-c4cn[nH]c4)c4c(N)ncnc43)n(-c3ccccc3F)c(=O)c12` [Compound 161]: below 1000 nM; for `Cc1ccccc1-n1c(Cn2nc(-c3ccc4nc(N)ccc4c3)c3c(N)ncnc32)cc2cccc(C)c2c1=O` [Compound 149]: below 100 nM. As for `Cc1cccc2cc(Cn3nc(I)c4c(N)ncnc43)n(C)c(=O)c12` [Compound 107], the EC50 is below 1000 nM.

As for `Cc1cccnc1-n1c(Cn2nc(I)c3c(N)ncnc32)cc2cccc(C)c2c1=O` [Compound 15], the EC50 was below 1000 nM. Same read-out and setting: the same measure for `COc1cc(-c2nn(Cc3cc4cccc(C)c4c(=O)n3-c3ccccc3F)c3ncnc(N)c23)ccc1Cl` [Compound 22]: below 10000 nM; for `CC(C)n1c(Cn2nc(-c3cccc(O)c3)c3c(N)ncnc32)cc2ccccc2c1=O` [Compound 135]: below 1000 nM.

For the molecule `Cc1cccc2cc(Cn3nc(-c4ccc(Cl)c(O)c4)c4c(N)ncnc43)n(C3CCCC3)c(=O)c12` [Compound 71], the EC50 was below 10000 nM. With `CCc1ccccc1-n1c(Cn2nc(-c3cc(O)cc(F)c3)c3c(N)ncnc32)cc2cccc(C)c2c1=O` [Compound 89], the EC50 was below 100 nM.

On to `Cc1cccc2cc(Cn3nc(-c4ccc(O)c(Cl)c4)c4c(N)ncnc43)n(-c3ccccc3F)c(=O)c12` [Compound 26], for which the EC50 was below 10000 nM.

Take `Cc1ccccc1-n1c(Cn2nc(-c3ccc(Cl)cc3)c3c(N)ncnc32)cc2cccc(C)c2c1=O` [Compound 49]: the EC50 was below 10000 nM. In the case of `Cc1ccccc1-n1c(Cn2nc(-c3cccc(Cl)c3)c3c(N)ncnc32)cc2cccc(C)c2c1=O` [Compound 39], the EC50 is below 10000 nM. For the molecule `Cc1ccccc1-n1c(Cn2nc(-c3cn[nH]c3)c3c(N)ncnc32)cc2cccc(C)c2c1=O` [Compound 160], the EC50 is below 100 nM. Still for that read-out and setting: the same measure for `Cc1cccc2cc(Cn3nc(-c4ccc(F)c(O)c4)c4c(N)ncnc43)n(C(C)C)c(=O)c12` [Compound 67]: below 100 nM; for `CCc1ccccc1-n1c(Cn2nc(I)c3c(N)ncnc32)cc2cccc(C)c2c1=O` [Compound 77]: below 1000 nM; for `Cc1ccccc1-n1c(Cn2nc(Cl)c3c(N)ncnc32)cc2cccc(C)c2c1=O` [Compound 20]: below 1000 nM. Take `Cc1cccc2cc(Cn3nc(-c4ccc(F)c(O)c4)c4c(N)ncnc43)n(-c3ccccc3F)c(=O)c12` [Compound 9]: the EC50 is below 1000 nM.

With `Cc1cccc2cc(Cn3nc(C#C[C@@H](C)O)c4c(N)ncnc43)n(C3CC3)c(=O)c12` [Compound 100], the EC50 was below 1000 nM.

For the molecule `Cc1cccc2cc(Cn3nc(/C=C4/SC(=O)NC4=O)c4c(N)ncnc43)n(-c3ccccc3F)c(=O)c12` [Compound 171], the EC50 was below 100 nM. In the case of `Cc1cccnc1-n1c(Cn2nc(-c3cc(O)cc(F)c3)c3c(N)ncnc32)cc2cccc(C)c2c1=O` [Compound 16], the EC50 was below 100 nM. Still for that read-out and setting: then `Cc1ccccc1-n1c(Cn2nc(C#C[C@H](C)O)c3c(N)ncnc32)cc2cccc(C)c2c1=O` [Compound 85], with below 1000 nM. On to `Cc1ccccc1-n1c(Cn2nc(Br)c3c(N)ncnc32)cc2cccc(C)c2c1=O` [Compound 19], for which the EC50 was below 1000 nM. Turning to `Cc1cccnc1-n1c(Cn2nc(-c3cccc(O)c3)c3c(N)ncnc32)cc2cccc(C)c2c1=O` [Compound 73], the EC50 was below 100 nM. Same read-out and setting: then `CC(=O)Nc1nc2ccc(-c3nn(Cc4cc5cccc(C)c5c(=O)n4C4CCC4)c4ncnc(N)c34)cc2s1` [Compound 159], with below 100 nM; and `Cc1ccccc1-n1c(Cn2nc(-c3ccc4nc(N)sc4c3)c3c(N)ncnc32)cc2cccc(C)c2c1=O` [Compound 145], with below 1000 nM; and `Cc1ccncc1-n1c(Cn2nc(I)c3c(N)ncnc32)cc2cccc(C)c2c1=O` [Compound 78], with below 1000 nM. Still for that read-out and setting: then `CC(=O)Nc1nc2ccc(-c3nn(Cc4cc5cccc(C)c5c(=O)n4C(C)C)c4ncnc(N)c34)cc2s1` [Compound 154], with below 100 nM; and `COc1ccccc1-n1c(Cn2nc(-c3cccc(O)c3)c3c(N)ncnc32)cc2cccc(C)c2c1=O` [Compound 74], with below 100 nM; and `Cc1cccc2cc(Cn3nc(-c4cc(O)cc(F)c4)c4c(N)ncnc43)n(C(C)C)c(=O)c12` [Compound 66], with below 100 nM. As to `Cc1ccccc1-n1c(Cn2nc(-c3cnn(CCO)c3)c3c(N)ncnc32)cc2cccc(C)c2c1=O` [Compound 163], the EC50 is below 1000 nM. On the same count and under the same terms, then `CC(C)n1c(Cn2nc(-c3cccc(O)c3)c3c(N)ncnc32)cc2cccc(Cl)c2c1=O` [Compound 137], with below 100 nM; and `Cc1cccnc1-n1c(Cn2nc(-c3ccc(Cl)c(O)c3)c3c(N)ncnc32)cc2cccc(C)c2c1=O` [Compound 72], with below 100 nM.

Regarding `Cc1cccc2cc(Cn3nc(C#CCO)c4c(N)ncnc43)n(-c3ccccc3F)c(=O)c12` [Compound 8], the EC50 was below 1000 nM.

Staying with this assay, now noted: Mus musculus, read-out: B cell proliferation EC50 (nM).
As for `Cc1cccc2cc(Cn3nc(C#N)c4c(N)ncnc43)n(-c3ccccc3F)c(=O)c12` [Compound 169], the EC50 is below 1000 nM.
